Source: patent US12091402B2 (Avilar Therapeutics, Inc., priority 2021, dated 2024)
Where two headings read alike, the source gives them in different places.

Tests used:
[1] = biological target: T1, ASGPR receptor on the cell surface (HepG2 cells) (Homo sapiens, UniProt P07306); assay: Ternary complex formation assay (flow cytometry, HepG2); format: cell-based
T1 construct: host or cells: HepG2
T1 sequence (P07306 1-291): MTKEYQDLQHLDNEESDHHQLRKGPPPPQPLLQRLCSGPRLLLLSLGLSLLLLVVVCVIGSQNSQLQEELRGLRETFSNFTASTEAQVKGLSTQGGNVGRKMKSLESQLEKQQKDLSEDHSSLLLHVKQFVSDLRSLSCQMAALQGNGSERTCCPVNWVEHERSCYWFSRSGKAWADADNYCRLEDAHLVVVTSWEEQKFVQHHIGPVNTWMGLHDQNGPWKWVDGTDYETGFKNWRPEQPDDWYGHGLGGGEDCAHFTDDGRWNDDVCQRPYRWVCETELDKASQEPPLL
T1 sequence (P07307 1-311 partner): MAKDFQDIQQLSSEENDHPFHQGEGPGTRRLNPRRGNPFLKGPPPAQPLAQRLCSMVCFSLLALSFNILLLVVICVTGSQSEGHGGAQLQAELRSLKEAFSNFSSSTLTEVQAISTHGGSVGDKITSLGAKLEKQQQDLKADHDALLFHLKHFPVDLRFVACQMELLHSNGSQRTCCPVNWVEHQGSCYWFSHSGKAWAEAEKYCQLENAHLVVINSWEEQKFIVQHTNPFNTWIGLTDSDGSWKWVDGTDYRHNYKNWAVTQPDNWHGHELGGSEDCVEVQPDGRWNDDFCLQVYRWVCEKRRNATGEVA
Excerpt: The ternary complex formation assay is designed to identify the concentration of Degrader required to form a complex between the degrader, a constant concentration of fluorescently-labeled antibody and the ASGPR receptor on the cell surface. The peak mean fluorescence intensity (MFI) occurs at the optimal degrader concentration for ternary complex formation. Sub-optimal concentrations of degrader (too much or too little) results in fewer complexes formed and a reduced […].
Human IgG (Sigma-Aldrich, 14506) was covalently labeled with Alexa Fluor 488 using the Alexa Fluor™ 488 Protein Labeling Kit (Thermo Fisher, A10235) following the manufacturer's instructions. HepG2 cells (ATCC, HIB-8065) were cultured to about 70% confluence and harvested by trypsinization. Single cell suspensions of HepG2 cells were plated in 96 well plates at 1×10^5 cells/well in cell culture media (DMEM supplemented with […]) and placed at 4° C. For studies using human IgG, cells were incubated with 100 nM AF488-labeled anti-human IgG and serial dilutions of IgG-based degrader for 1 hour at 4° C. For studies using DNP, cells were incubated with 100 nM AF488-labeled polyclonal rabbit anti-dinitrophenyl (DNP) antibodies (ThermoFisher) and serial dilutions of DNP-based degrader for 1 hour at 4° C. After washing once with ice-cold PBS containing 0.1% BSA and 0.1% sodium azide, cells were resuspended in 150 uL PBS+0.1% BSA and cell-associated AF488 fluorescence was measured by flow cytometry using the iQue® Screener PLUS Flow Cytometer (IntelliCyt).

[2] = system: HepG2 cells; assay: Cellular uptake assay of AF488-labeled antibody (HepG2); format: cell-based
Experimental: The cellular uptake assay is designed to measure compound-mediated cellular uptake of fluorescently labeled antibody following ternary complex formation with the ASGPR receptor and endocytosis of the entire complex into cells.
Human IgG (Sigma-Aldrich, 14506) was covalently labeled with Alexa Fluor 488 using the Alexa Fluor™ 488 Protein Labeling Kit (Thermo Fisher, A10235) following the manufacturer's instructions. HepG2 cells were plated in DMEM supplemented with 10% FBS at 5,000 cells per well in a 96-well microtiter plate and incubated for approximately 18 hours at 37° C./5% CO2. For studies using human IgG, 100 nM AF488-labeled human IgG antibodies and serial dilutions of IgG-based degrader (0.1% DMSO final concentration) were added to the cells and the mixture was incubated at 37° C. for 6 hours. For studies using DNP, 100 nM AF488-labeled DNP antibodies and serial dilutions of DNP-based degrader (0.1% DMSO final concentration) were added to the cells and the mixture was incubated at 37° C. for 6 hours. HepG2 cells were fixed in 100% methanol at −20° C. for 20 min, washed 3× with PBS, then stained with DAPI (Thermo, Cat #H3570). HepG2 cells were imaged for DAPI and Alexa Fluor 488 using the Operetta CLS, high-content analysis system (PerkinElmer). Data is presented as the ratio of the number of cells positive for hIgG or DNP (AF-488 fluorescence) over the total cell number (measured by DAPI).

[3] = HepG2 cells, read-out: Uptake EC50
[4] = HepG2 cells, 100 nM AF488-labeled antibody, 37° C. for 6 hours, class symbols, read-out: Uptake Assay EC50

| Structure (SMILES) | EC50 [1] [nM] | EC50 [2, 3] [nM] | EC50 [2, 4] [nM] | further results |
| --- | --- | --- | --- | --- |
| CC(C)C[C@@H]1NC(=O)[C@H](Cc2c[nH]cn2)NC(=O)[C@H](Cc2c[nH]c3ccccc23)NC(=O)[C@H](C)NC(=O)[C@@H]2CSSC[C@H](NC(=O)[C@H](Cc3c[nH]c4ccccc34)NC(=O)[C@H](C(C)C)NC(=O)[C@H](CC(C)C)NC(=O)[C@H](CCC(=O)O)NC(=O)CNC1=O)C(=O)N[C@@H]([C@@H](C)O)C(=O)N1CCC[C@@H]1C(=O)N1C[C@@H](NC(=O)CCOCCOCCOCCOCCNC(=O)CCCc3cn(CCCCCC(=O)NC(COCCC(=O)NCCOCCOCCOCCO[C@@H]4O[C@H](CO)[C@H](O)[C@H](O)[C@H]4Nc4cncc(C(F)(F)F)n4)COCCC(=O)NCCOCCOCCOCCO[C@@H]4O[C@H](CO)[C@H](O)[C@H](O)[C@H]4Nc4cncc(C(F)(F)F)n4)nn3)C[C@H]1C(=O)N[C@@H](CC(=O)O)C(=O)N2 [Compound 82] | < 100 | < 100 |  |  |
| CC(C)C[C@@H]1NC(=O)[C@H](Cc2c[nH]cn2)NC(=O)[C@H](Cc2c[nH]c3ccccc23)NC(=O)[C@H](C)NC(=O)[C@@H]2CSSC[C@H](NC(=O)[C@H](Cc3c[nH]c4ccccc34)NC(=O)[C@H](C(C)C)NC(=O)[C@H](CC(C)C)NC(=O)[C@H](CCC(=O)O)NC(=O)CNC1=O)C(=O)N[C@@H]([C@@H](C)O)C(=O)N1CCC[C@@H]1C(=O)N1C[C@@H](NC(=O)COCC(=O)NC(COCCC(=O)NCCOCCOCCOCCOC[C@H]3OC[C@H](Nc4cncc(C(F)(F)F)n4)[C@@H](O)[C@H]3O)COCCC(=O)NCCOCCOCCOCCOC[C@H]3OC[C@H](Nc4cncc(C(F)(F)F)n4)[C@@H](O)[C@H]3O)C[C@H]1C(=O)N[C@@H](CC(=O)O)C(=O)N2 [Compound 43] | < 100 |  | < 100 |  |
| CC(C)C[C@@H]1NC(=O)[C@H](Cc2c[nH]cn2)NC(=O)[C@H](Cc2c[nH]c3ccccc23)NC(=O)[C@H](C)NC(=O)[C@@H]2CSSC[C@H](NC(=O)[C@H](Cc3c[nH]c4ccccc34)NC(=O)[C@H](C(C)C)NC(=O)[C@H](CC(C)C)NC(=O)[C@H](CCC(=O)O)NC(=O)CNC1=O)C(=O)N[C@@H]([C@@H](C)O)C(=O)N1CCC[C@@H]1C(=O)N1C[C@@H](NC(=O)CNC(COCCC(=O)NCCOCCOCCOCCOC[C@H]3OC[C@H](Nc4nccc(C(F)(F)F)n4)[C@@H](O)[C@H]3O)COCCC(=O)NCCOCCOCCOCCOC[C@H]3OC[C@H](Nc4nccc(C(F)(F)F)n4)[C@@H](O)[C@H]3O)C[C@H]1C(=O)N[C@@H](CC(=O)O)C(=O)N2 [Compound 50] | < 100 |  | < 100 |  |
| CC(C)C[C@@H]1NC(=O)[C@H](Cc2c[nH]cn2)NC(=O)[C@H](Cc2c[nH]c3ccccc23)NC(=O)[C@H](C)NC(=O)[C@@H](NC(=O)[C@H](CC(=O)O)NC(=O)CCOCCOCCOCCOCCNC(=O)CCCc2cn(CCCCCC(=O)NC(COCCC(=O)NCCOCCOCCOCCO[C@@H]3O[C@H](CO)[C@H](O)[C@H](O)[C@H]3Nc3cncc(C(F)(F)F)n3)COCCC(=O)NCCOCCOCCOCCO[C@@H]3O[C@H](CO)[C@H](O)[C@H](O)[C@H]3Nc3cncc(C(F)(F)F)n3)nn2)CSSC[C@@H](C(=O)N[C@H](C(N)=O)[C@@H](C)O)NC(=O)[C@H](Cc2c[nH]c3ccccc23)NC(=O)[C@H](C(C)C)NC(=O)[C@H](CC(C)C)NC(=O)[C@H](CCC(=O)O)NC(=O)CNC1=O [Compound 89] |  | < 100 |  | EC50 ([1]; HepG2 cells, ternary complex formation, read-out: TCF EC50): < 100 nM |
| CC(C)C[C@@H]1NC(=O)[C@H](Cc2c[nH]cn2)NC(=O)[C@H](Cc2c[nH]c3ccccc23)NC(=O)[C@H](C)NC(=O)[C@@H]2CSSC[C@H](NC(=O)[C@H](Cc3c[nH]c4ccccc34)NC(=O)[C@H](C(C)C)NC(=O)[C@H](CC(C)C)NC(=O)[C@H](CCC(=O)O)NC(=O)CNC1=O)C(=O)N[C@@H]([C@@H](C)O)C(=O)N1CCC[C@@H]1C(=O)N1C[C@@H](NC(=O)COCC(=O)NC(COCCC(=O)NCCOCCOCCOCCOC[C@H]3OC[C@H](Nc4nccc(C(F)(F)F)n4)[C@@H](O)[C@H]3O)COCCC(=O)NCCOCCOCCOCCOC[C@H]3OC[C@H](Nc4nccc(C(F)(F)F)n4)[C@@H](O)[C@H]3O)C[C@H]1C(=O)N[C@@H](CC(=O)O)C(=O)N2 [Compound 46] | < 100 |  | < 100 |  |
| O=[N+]([O-])c1ccc(NCCOCCOCCOCCOCCOCCOCCOC[C@@]23CO[C@@H](O2)[C@H](Nc2nc(Cl)ns2)[C@@H](O)[C@H]3O)c([N+](=O)[O-])c1 [Compound 26, (1S,2R,3R,4R,5S)-4-((3-chloro-1,2,4-thiadiazol-5-yl)amino)-1-(22-((2,4-dinitrophenyl)amino)-2,5,8,11,14,17,20-heptaoxadocosyl)-6,8-dioxabicyclo[3.2.1]octane-2,3-diol] |  |  |  | EC50 ([1]; Ternary Complex EC50 (nM), HepG2 cells, 100 nM AF488-labeled antibody, 1 hour at 4° C., class symbols): < 100 nM; EC50 ([2]; Homo sapiens, HepG2, 6 h, read-out: Uptake Assay EC50 (nM)): < 100 nM |
| CC(C)C[C@@H]1NC(=O)[C@H](Cc2c[nH]cn2)NC(=O)[C@H](Cc2c[nH]c3ccccc23)NC(=O)[C@H](C)NC(=O)[C@@H](NC(=O)[C@@H](N)CC(=O)O)CSSC[C@@H](C(=O)N[C@H](C(N)=O)[C@@H](C)O)NC(=O)[C@H](Cc2c[nH]c3ccccc23)NC(=O)[C@H](C(C)C)NC(=O)[C@H](CC(C)C)NC(=O)[C@H](CCC(=O)NCCOCCOCCOCCOCCNC(=O)CCCc2cn(CCCCCC(=O)NC(COCCC(=O)NCCOCCOCCOCCOC[C@@]34CO[C@@H](O3)[C@H](Nc3nc(Cl)ns3)[C@@H](O)[C@H]4O)COCCC(=O)NCCOCCOCCOCCOC[C@@]34CO[C@@H](O3)[C@H](Nc3nc(Cl)ns3)[C@@H](O)[C@H]4O)nn2)NC(=O)CNC1=O [Compound 3] | < 100 | < 100 | 500 to 1000 | EC50 ([1]; read-out: Ternary Complex EC50): < 100 nM |
| CC(C)C[C@@H]1NC(=O)[C@H](Cc2cnc[nH]2)NC(=O)[C@H](Cc2c[nH]c3ccccc23)NC(=O)[C@H](C)NC(=O)[C@@H]2CSSC[C@H](NC(=O)[C@H](Cc3c[nH]c4ccccc34)NC(=O)[C@H](C(C)C)NC(=O)[C@H](CC(C)C)NC(=O)[C@H](CCC(=O)O)NC(=O)CNC1=O)C(=O)N[C@@H]([C@@H](C)O)C(=O)N1CCC[C@@H]1C(=O)N1C[C@@H](NC(=O)COCCOCC(=O)NC(COCCC(=O)NCCOCCOCCOCCOC[C@H]3OC[C@H](Nc4nccc(C(F)(F)F)n4)[C@@H](O)[C@H]3O)COCCC(=O)NCCOCCOCCOCCOC[C@H]3OC[C@H](Nc4nccc(C(F)(F)F)n4)[C@@H](O)[C@H]3O)C[C@H]1C(=O)N[C@@H](CC(=O)O)C(=O)N2 [Compound 47] |  |  | < 100 | EC50 ([1]; HepG2 cells, 100 nM AF488-labeled antibody, 1 hour at 4° C., class symbols, read-out: Ternary Complex EC50): < 100 nM |
| CC(C)C[C@@H]1NC(=O)[C@H](Cc2c[nH]cn2)NC(=O)[C@H](Cc2c[nH]c3ccccc23)NC(=O)[C@H](C)NC(=O)[C@@H]2CSSC[C@H](NC(=O)[C@H](Cc3c[nH]c4ccccc34)NC(=O)[C@H](C(C)C)NC(=O)[C@H](CC(C)C)NC(=O)[C@H](CCC(=O)O)NC(=O)CNC1=O)C(=O)N[C@@H]([C@@H](C)O)C(=O)N1CCC[C@@H]1C(=O)N1C[C@H](NC(=O)c3ccc(N4CCC(CN5CCN(C[C@H]6OC[C@H](Nc7cncc(C(F)(F)F)n7)[C@@H](O)[C@H]6O)CC5)CC4)cc3)C[C@H]1C(=O)N[C@@H](CC(=O)O)C(=O)N2 [Compound 93] | < 100 | < 100 |  |  |
